Experimental data: patent US20260108455A1, “DEVICE FOR SUSTAINED CONTROLLED RELEASE OF A […] ACTIVE SUBSTANCE AND USES THEREOF” (Hylomorph AG, priority 2022, published 2026)
Counter-ions that a name gives are not always drawn.

Tests used:
[1] = Drug elution testing (in vitro release) of PLGA films; format: physicochemical; conditions: all prototypes, phase 2
Description: The main goals are summarized below: • 1. Prepare placebo films with multiple grades of PLGA polymers (Table 1) using solvent casting method. Evaluate both single and dual layer film designs. • 2. […] Create HPLC assay and drug elution method based on provided information. Optimize method for use in formulation development.

[2] = Solubility in water (distilled and deionized water); format: physicochemical; conditions: 20 °C, pH 7, water, neutral pH, i.e. pH of 7 at room temperature
Method: Solubility is a chemical property of a molecule in a specific solvent which depends on the chemistry of the two and on the environmental conditions of temperature and pH. […] This at room temperature (20 deg) or body temperature (37 deg) and a pH of 7. Solubility is measured in distilled and deionized water and is given in mg/mL.

| SMILES | degradation during elution testing [1] | solubility [2] |
| --- | --- | --- |
| CN(C)c1ccc(O)c2c1C[C@H]1C[C@H]3[C@H](N(C)C)C(O)=C(C(N)=O)C(=O)[C@@]3(O)C(O)=C1C2=O [Minocycline HCl, Minocycline Hydrochloride] | Significant degradation |  |
| CO[C@H]1/C=C/O[C@@]2(C)Oc3c(C)c(O)c4c(O)c(c(/C=N/N5CCN(C)CC5)c(O)c4c3C2=O)NC(=O)/C(C)=C\C=C\[C@H](C)[C@H](O)[C@@H](C)[C@@H](O)[C@@H](C)[C@H](OC(C)=O)[C@@H]1C [Rifampicin] |  | ≤ 2.5 mg/mL |
